Source: patent publication US9707249B2, “Trehalulose-containing composition, its preparation and use” (SÜDZUCKER AKTIENGESELLSCHAFT MANNHEIM/OCHSENFURT, priority 2009, dated 2017)

Legend:
[1] = Blood insulin response (insulinemic index, II) after consumption, randomized cross over analysis; format: in vivo, human; conditions: ten healthy subjects, 25 g carbohydrate and 250 ml water, 0 to 180 minutes
Method: (§1) The effect of trehalulose on the blood glucose response (glycemic index, GI) and the insulin response (insulinemic index, II) was examined in comparison to isomaltulose. The analysis was done as a randomized cross over analysis on ten healthy subjects of both sex. Blood glucose- and insulin-profiles were taken after consumption of isomaltulose or trehalulose (each 25 g carbohydrate and 250 ml water) for an interval of 0 to 180 minutes at the following time points 0, 15, 30, 45, 60, 90, 120, 150 and 180 minutes.

[2] = Blood glucose response (glycemic index, GI) after consumption, randomized cross over analysis; format: in vivo, human; conditions: ten healthy subjects, 25 g carbohydrate and 250 ml water, 0 to 180 minutes, compared to isomaltulose
Method: as §1

[3] = Stability of trehalulose during preparation (cooking) of jellies; format: physicochemical; conditions: when cooking the jellies
Method: In the following, four recipes for jellies using as sweeteners a mixture of sucrose and glucose and four recipes using the trehalulose-containing composition, that means vitalose, of the present invention are prepared. The jellies prepared were tested comparatively in storage and TPA-analysis.
In all of the jelly recipes the conventional sweetener combination of sucrose and glucose could be successfully replaced by the trehalulose-containing composition, that means vitalose, of the present invention. The preparation using the trehalulose-containing composition, that means vitalose, was exactly as for the sucrose/glucose compositions.

SMILES | insulin response (II), blood insulin level [1] | blood glucose response (GI), blood glucose level [2] | degradation during preparation [3]
O=C(CO)[C@@H](O)[C@H](O)[C@H](O)CO[C@H]1O[C@H](CO)[C@@H](O)[C@H](O)[C@H]1O [isomaltulose, 6-O-α-D-glucopyranosyl-D-fructose, reference compound] | in parallel to the blood glucose response |  | 
O=C(CO[C@H]1O[C@H](CO)[C@@H](O)[C@H](O)[C@H]1O)[C@@H](O)[C@H](O)[C@H](O)CO [trehalulose, 1-O-α-D-glucopyranosyl-D-fructose] | significantly lower insulin response (II) than isomaltulose | increased and longer sustaining supply of glucose | no degradation of trehalulose was observed
